Results from ChEMBL document CHEMBL1201862, “PubChem BioAssay data set” (2004).
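All cell lines were grown in 96-well plates and treated with compound for 48 hours. GI50 marks 50% less growth.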 The source made the active and inactive calls. Cut-off read from the data, not from the text of the source: active = GI50 up to about 1.1 µM and inactive = higher.

What was measured:
Assay in all cases: NCI anticancer screen, dose series, 48 h
HCT-15 = test system: HCT-15
OVCAR-4 = test system: OVCAR-4
SF-268 = test system: SF-268
SF-295 = test system: SF-295
PC-3 = test system: PC-3
SR = test system: SR
NCI-H460 = test system: NCI-H460
786-0 = test system: 786-0
EKVX = test system: EKVX
COLO 205 = test system: COLO 205
NCI/ADR-RES = test system: NCI/ADR-RES
HCC 2998 = test system: HCC 2998
NCI-H23 = test system: NCI-H23
SK-MEL-2 = test system: SK-MEL-2
KM12 = test system: KM12
SK-MEL-5 = test system: SK-MEL-5
IGROV-1 = test system: IGROV-1
SW-620 = test system: SW-620
Malme-3M = test system: Malme-3M
A549 = test system: A549
HT-29 = test system: HT-29
UACC-257 = test system: UACC-257
HOP-62 = test system: HOP-62
DU-145 = test system: DU-145
OVCAR-8 = test system: OVCAR-8
UACC-62 = test system: UACC-62
SF-539 = test system: SF-539
HCT-116 = test system: HCT-116
LOX IMVI = test system: LOX IMVI
NCI-H226 = test system: NCI-H226
OVCAR-5 = test system: OVCAR-5
MOLT-4 = test system: MOLT-4
SK-MEL-28 = test system: SK-MEL-28
CCRF-CEM = test system: CCRF-CEM
UO-31 = test system: UO-31
MDA-MB-231 = test system: MDA-MB-231
SNB-19 = test system: SNB-19
RXF 393 = test system: RXF 393
T47D = test system: T47D
HOP-92 = test system: HOP-92
M14 = test system: M14
RPMI-8226 = test system: RPMI-8226
SK-OV-3 = test system: SK-OV-3
BT-549 = test system: BT-549
K562 = test system: K562
MDA-N = test system: MDA-N
OVCAR-3 = test system: OVCAR-3
SNB-75 = test system: SNB-75
A498 = test system: A498
NCI-H522 = test system: NCI-H522
MCF7 = test system: MCF7
MDA-MB-435 = test system: MDA-MB-435
Hs-578T = test system: Hs-578T
HL-60 = test system: HL-60
ACHN = test system: ACHN
SN12C = test system: SN12C
TK-10 = test system: TK-10
U-251 = test system: U-251
CAKI-1 = test system: CAKI-1

Measured: GI50

CC(O)c1cc2c(s1)C(=O)c1sccc1C2=O (stereo not drawn)
active: OVCAR-4 168 nM | SF-268 114 nM | SF-295 79.2 nM | PC-3 289 nM | SR 80.3 nM | NCI-H460 127 nM | 786-0 303 nM | EKVX 254 nM | COLO 205 574 nM | NCI/ADR-RES 178 nM | HCC 2998 202 nM | NCI-H23 15.5 nM | SK-MEL-2 41.5 nM | KM12 234 nM | SK-MEL-5 16.4 nM | IGROV-1 248 nM | SW-620 45.3 nM | Malme-3M 21.5 nM | A549 155 nM | HT-29 238 nM | UACC-257 18.3 nM | HOP-62 163 nM | DU-145 20.2 nM | OVCAR-8 191 nM | UACC-62 51.9 nM | SF-539 40.1 nM | HCT-116 151 nM | LOX IMVI 24.7 nM | NCI-H226 207 nM | OVCAR-5 186 nM | MOLT-4 268 nM | SK-MEL-28 47 nM | CCRF-CEM 334 nM | UO-31 185 nM | MDA-MB-231 172 nM | SNB-19 136 nM | RXF 393 172 nM | T47D 329 nM | HOP-92 386 nM | M14 18.5 nM | RPMI-8226 184 nM | BT-549 64.6 nM | K562 353 nM | MDA-N 19.8 nM | OVCAR-3 187 nM | SNB-75 90.2 nM | A498 290 nM | NCI-H522 148 nM | MCF7 152 nM | MDA-MB-435 20.3 nM | Hs-578T 63.8 nM | HL-60 85.9 nM | ACHN 150 nM | SN12C 112 nM | TK-10 213 nM | U-251 125 nM | CAKI-1 552 nM
inactive: SK-OV-3 1490 nM
45.4 nM: HCT-15

O=[N+]([O-])c1cccc2nc3ccccc3c(NCCCn3ccnc3[N+](=O)[O-])c12
active: OVCAR-4 10.4 nM | SF-268 0.819 nM | SF-295 11.7 nM | PC-3 0.598 nM | SR 20 nM | NCI-H460 < 0.1 nM | 786-0 0.175 nM | EKVX 0.298 nM | COLO 205 0.109 nM | NCI/ADR-RES 23.8 nM | HCC 2998 0.156 nM | NCI-H23 0.3 nM | SK-MEL-2 0.235 nM | KM12 0.114 nM | SK-MEL-5 < 0.1 nM | IGROV-1 3.89 nM | SW-620 < 0.1 nM | Malme-3M 0.23 nM | A549 0.122 nM | HT-29 < 0.1 nM | UACC-257 3.9 nM | HOP-62 0.785 nM | DU-145 < 0.1 nM | OVCAR-8 0.111 nM | UACC-62 0.959 nM | SF-539 1.37 nM | HCT-116 < 0.1 nM | LOX IMVI 15.8 nM | NCI-H226 0.245 nM | OVCAR-5 0.17 nM | MOLT-4 0.336 nM | SK-MEL-28 1.89 nM | CCRF-CEM 5.74 nM | UO-31 0.76 nM | MDA-MB-231 0.168 nM | SNB-19 0.366 nM | RXF 393 0.139 nM | T47D 40.7 nM | HOP-92 0.187 nM | M14 < 0.1 nM | RPMI-8226 < 0.1 nM | SK-OV-3 22.9 nM | BT-549 < 0.1 nM | K562 < 0.1 nM | MDA-N < 0.1 nM | OVCAR-3 3.09 nM | SNB-75 13.7 nM | A498 0.227 nM | NCI-H522 0.46 nM | MCF7 < 0.1 nM | MDA-MB-435 < 0.1 nM | Hs-578T 16.9 nM | HL-60 0.889 nM | ACHN 0.161 nM | SN12C 0.282 nM | TK-10 3.67 nM | U-251 0.213 nM | CAKI-1 0.385 nM
0.132 nM: HCT-15
